Data on one substance can be found in EP0043274A2, “Antithrombotic treatment” (priority 1980, dated 1982).

The target in test [1] is T1, F VIII (Homo sapiens, UniProt P00451).
T1 construct: from tissue; host or cells: human plasma
As to the kind of experiment: Coagulation factor assay (Biggs): Factor VIII. In kind it is biochemical. Conditions: for F VIII (%): U.S.P. grade, control 57. The protocol:
The effect of U.S.P. grade sodium bisulfite on blood coagulation factors is evaluated by standard procedures (Biggs) and the results are shown in Table III below.
References for PT, PTT, and assays of all the coagulation factors can be found in a standard textbook, entitled "Human Blood Coagulation, Haemostasis and Thrombosis", edited by Rosemary Biggs, published by Blackwell Scientific Publications, Oxford, England (2nd edition), pages 670-705, 1976.

The test system of test [2] is human platelet rich plasma. As to the kind of experiment: Platelet aggregation in platelet rich plasma, platelet aggregometer (technique of Born). Conditions: 1 millimole (mM); induced by optimal concentrations of ADP, collogen, epinephrine, and arachidonic acid. In kind it is cell-based. The text has this: A present preference for purposes of evaluating an - antithrombotic effect is to withdraw samples of blood from a patient undergoing treatment and to measure platelet aggregation. One method is described in the paper by Born in Nature 194, pp. 927-929 (1962), which may be used for this purpose if desired.
That sodium bisulfite is an antiplatelet aggregatory agent is shown by using a platelet aggregometer based on the technique of Born (above cited).
Platelet rich plasma from rabbit and men was prepared by the centrugation technique referenced in Example 13. Using ADP (adosine diphosphate) as a stimulus rapid aggregation of platelets occurred. […] This procedure is described in the article by Born in Nature, Vol. 194, pgs. 927-929 (1962).
Platelet rich plasma from rabbits and men was prepared by the centrugation technique referenced in Example 13. Using ADP (adosine diphosphate) arachidonic acid as a stimulus, rapid aggregation of platelets occurred. […] This procedure is described in the article by Born, Nature, Vol. 194, pgs. 927-929 (1962).

T1 sequence (P00451 20-2351): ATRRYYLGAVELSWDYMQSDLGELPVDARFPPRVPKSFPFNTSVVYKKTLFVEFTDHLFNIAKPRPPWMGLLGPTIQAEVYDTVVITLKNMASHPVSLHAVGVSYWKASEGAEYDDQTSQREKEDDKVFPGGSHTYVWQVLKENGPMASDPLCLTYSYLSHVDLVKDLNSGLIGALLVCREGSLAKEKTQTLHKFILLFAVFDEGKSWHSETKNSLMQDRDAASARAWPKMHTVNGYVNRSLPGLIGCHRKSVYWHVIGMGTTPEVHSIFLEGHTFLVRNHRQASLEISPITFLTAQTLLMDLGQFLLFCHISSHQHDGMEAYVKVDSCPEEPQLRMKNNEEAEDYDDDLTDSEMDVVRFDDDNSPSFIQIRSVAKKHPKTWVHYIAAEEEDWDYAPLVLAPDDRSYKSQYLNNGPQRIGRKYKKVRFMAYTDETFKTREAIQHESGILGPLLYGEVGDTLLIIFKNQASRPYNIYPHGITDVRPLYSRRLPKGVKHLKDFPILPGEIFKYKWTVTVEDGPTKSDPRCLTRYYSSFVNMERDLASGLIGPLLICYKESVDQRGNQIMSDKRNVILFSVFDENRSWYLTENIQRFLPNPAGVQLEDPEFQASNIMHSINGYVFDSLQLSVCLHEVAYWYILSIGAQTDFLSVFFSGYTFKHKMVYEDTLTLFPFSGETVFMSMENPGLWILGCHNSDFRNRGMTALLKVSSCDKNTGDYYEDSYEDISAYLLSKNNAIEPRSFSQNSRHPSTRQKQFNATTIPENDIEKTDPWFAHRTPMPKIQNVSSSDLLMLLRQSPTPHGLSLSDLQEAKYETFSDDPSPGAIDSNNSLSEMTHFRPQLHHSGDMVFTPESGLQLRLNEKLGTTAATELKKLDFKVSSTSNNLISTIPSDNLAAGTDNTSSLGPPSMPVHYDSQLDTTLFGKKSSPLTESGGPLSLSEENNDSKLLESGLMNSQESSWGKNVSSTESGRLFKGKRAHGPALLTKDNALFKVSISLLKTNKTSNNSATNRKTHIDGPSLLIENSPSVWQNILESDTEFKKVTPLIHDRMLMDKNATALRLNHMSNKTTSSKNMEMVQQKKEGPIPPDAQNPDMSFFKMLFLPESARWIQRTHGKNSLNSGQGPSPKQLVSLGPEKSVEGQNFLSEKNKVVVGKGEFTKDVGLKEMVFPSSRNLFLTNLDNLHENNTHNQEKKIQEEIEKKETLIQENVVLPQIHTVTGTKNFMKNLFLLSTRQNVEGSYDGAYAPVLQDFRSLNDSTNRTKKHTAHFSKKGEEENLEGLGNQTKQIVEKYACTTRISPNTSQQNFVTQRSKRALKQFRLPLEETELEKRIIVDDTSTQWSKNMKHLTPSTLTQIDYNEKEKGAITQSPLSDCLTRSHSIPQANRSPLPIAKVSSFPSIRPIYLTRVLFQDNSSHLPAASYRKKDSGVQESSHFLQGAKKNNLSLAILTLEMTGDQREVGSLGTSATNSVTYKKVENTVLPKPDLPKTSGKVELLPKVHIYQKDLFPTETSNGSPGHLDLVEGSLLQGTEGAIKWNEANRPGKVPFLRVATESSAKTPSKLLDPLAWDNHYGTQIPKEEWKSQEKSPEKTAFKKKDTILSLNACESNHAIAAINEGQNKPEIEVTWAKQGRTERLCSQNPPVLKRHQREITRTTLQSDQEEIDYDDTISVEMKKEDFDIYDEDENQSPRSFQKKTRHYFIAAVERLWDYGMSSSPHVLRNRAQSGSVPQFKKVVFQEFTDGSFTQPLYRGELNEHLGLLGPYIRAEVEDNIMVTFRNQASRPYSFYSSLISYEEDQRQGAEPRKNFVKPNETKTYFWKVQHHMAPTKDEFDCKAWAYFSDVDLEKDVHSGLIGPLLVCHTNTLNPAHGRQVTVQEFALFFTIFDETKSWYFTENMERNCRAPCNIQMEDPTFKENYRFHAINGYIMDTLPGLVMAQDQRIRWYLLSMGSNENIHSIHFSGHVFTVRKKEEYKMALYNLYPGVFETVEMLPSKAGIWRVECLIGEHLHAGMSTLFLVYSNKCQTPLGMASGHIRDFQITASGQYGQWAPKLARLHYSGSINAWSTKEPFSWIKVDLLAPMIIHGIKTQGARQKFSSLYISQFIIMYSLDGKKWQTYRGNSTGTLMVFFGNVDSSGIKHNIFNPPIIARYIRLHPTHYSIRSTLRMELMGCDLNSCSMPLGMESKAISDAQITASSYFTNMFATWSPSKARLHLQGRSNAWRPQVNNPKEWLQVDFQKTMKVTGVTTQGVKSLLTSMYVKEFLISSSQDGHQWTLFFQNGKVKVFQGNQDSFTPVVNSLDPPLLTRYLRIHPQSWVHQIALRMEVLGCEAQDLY

Regarding Sodium bisulfite, the “effect on Factor VIII” value in test [1] was “mildly affected”. The “F VIII (%)” value in test [1] (0.01 mg/ml) is listed as 62%; in test [1] (0.05 mg/ml) it was 68%; in test [1] (0.1 mg/ml) it was 55%; in test [1] (0.5 mg/ml) it was 58%; in test [1] (1.0 mg/ml) it was 29%; in test [1] (5.0 mg/ml), 11%. The platelet aggregation result in test [2] is recorded as “abolishes platelet aggregation”.
